# According to ChEMBL document CHEMBL1144863, “Novel histone deacetylase inhibitors: design, synthesis, enzyme inhibition, and binding mode study of SAHA-based non-hydroxamates” (Bioorg Med Chem Lett, 2003):
# Legend:
# Histone deacetylase = test: In vitro inhibitory activity against histone deacetylase (HDAC) isolated from HeLa nuclear extract; assay type: protein assay, Homo sapiens
# [1] = biological target: Histone deacetylase (Homo sapiens) (UniProt Q13547+O15379+Q9UBN7+Q92769+Q9UQL6+Q8WUI4+Q9BY41+Q96DB2+P56524+Q9UKV0+Q969S8); conditions: at 100 µM
# Description: In vitro inhibitory activity against histone deacetylase (HDAC) isolated from HeLa nuclear extract at a concentration of 100 uM
IC50 (Histone deacetylase) [µM],inhibition [1] [%],SMILES
> 100,3,NCCNC(=O)CCCCCCC(=O)Nc1ccccc1
> 100,5,O=C(CCCCCCC(=O)OCCO)Nc1ccccc1
> 100,0,O=C(CCCCCC/C(=N/O)c1ccccn1)Nc1ccccc1
300,40,O=C(CBr)NCCCCCCCC(=O)Nc1ccccc1
121,47,O=C(CBr)NCCCCC(=O)Nc1ccccc1
650,18,NNC(=O)NCCCCCCC(=O)Nc1ccccc1
> 100,9,O=C(CCCCCCC(=O)Nc1nccs1)Nc1ccccc1
> 100,16,C#CCNCCCCCCC(=O)Nc1ccccc1
> 100,4,O=C(CCCCCCNC(=O)C(Cl)(Cl)Cl)Nc1ccccc1
> 100,12,COC(=O)NCCCCCCC(=O)Nc1ccccc1
> 1000,12,NNC(=O)NCCCCC(=O)Nc1ccccc1
> 100,4,O=C(CCCCCCC(=O)Nc1ccccc1)NCCO
> 100,3,O=C(CCCCCCNC(=O)C(F)(F)F)Nc1ccccc1
> 100,8,O=C(CCCCCCC(=O)Nc1ccccn1)Nc1ccccc1
> 100,7,NC(=O)NCCCCCCC(=O)Nc1ccccc1
> 100,8,C#CCN(CC#C)CCCCCCC(=O)Nc1ccccc1
14,79,O=C(CBr)NCCCCCCC(=O)Nc1ccccc1
17,78,O=C(CBr)NCCCCCC(=O)Nc1ccccc1
> 100,19,CCOC(=O)NCCCCCCC(=O)Nc1ccccc1
150,35,NNC(=O)NCCCCCC(=O)Nc1ccccc1
> 100,15,O=C(CCCCCCC(=O)c1ccccn1)Nc1ccccc1

SMILES,IC50 (Histone deacetylase) [µM],inhibition [1] [%]
Nc1ccccc1NC(=O)CCCCCCC(=O)Nc1ccccc1,120,48
